# Values quoted from earlier work, collected in US7195882B2, “Monoclonal antibodies specific for buprenorphine and metabolites thereof” (priority 2003, dated 2007).
# Settings: in vivo
structure (smiles),measurement,value
"CO[C@]12CC[C@@]3(C[C@@H]1[C@](C)(O)C(C)(C)C)[C@H]1Cc4ccc(O[C@@H]5O[C@H](C(=O)O)[C@@H](O)[C@H](O)[C@H]5O)c5c4[C@@]3(CCN1CC1CC1)[C@H]2O5 [buprenorphine glucuronide, buprenorphine 3-O-β-D-glucuronide]",appearance in urine,1 to 2 days
